This note sets out measurements from patent US20230257351A1, “SUBSTITUTED N-[…] HAVING P2X4 RECEPTOR ANTAGONISTIC ACTIVITY” (Bayer Aktiengesellschaft, priority 2020, published 2023).

The assay concerns the target T1, human P2X4 (Homo sapiens, UniProt Q99571).
T1 construct: expressed in transfected cells
T1 sequence (Q99571 1-388): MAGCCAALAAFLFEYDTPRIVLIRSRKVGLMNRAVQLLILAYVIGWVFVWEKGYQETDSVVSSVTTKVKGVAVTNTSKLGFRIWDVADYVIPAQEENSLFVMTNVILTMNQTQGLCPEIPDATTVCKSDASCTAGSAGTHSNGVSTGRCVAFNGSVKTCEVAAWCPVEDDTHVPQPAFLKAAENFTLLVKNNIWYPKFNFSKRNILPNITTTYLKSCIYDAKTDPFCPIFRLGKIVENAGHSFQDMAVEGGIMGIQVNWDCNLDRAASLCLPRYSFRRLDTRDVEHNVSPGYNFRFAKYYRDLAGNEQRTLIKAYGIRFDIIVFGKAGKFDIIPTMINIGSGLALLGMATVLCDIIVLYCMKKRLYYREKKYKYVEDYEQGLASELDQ
The assay is described as follows: Human P2X4 HEK Cell FLIPR Assay. It counts as cell-based. Particulars: HEK293 stably expressing human P2X4, agonist Bz-ATP 3 μM (EC80); for pIC50: read-out: Human P2X4 HEK Cells (FLIPR Assay) avg IC50. A digest of the protocol: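 Compounds were preincubated 30 min at room temperature on Fluo8-AM-loaded HEK293 cells stably expressing human P2X4. The response was the calcium fluorescence rise on Bz-ATP addition.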

pIC50: −log10 of the molar value.

As a reminder, the pIC50 is −log10 of the IC50, conventionally taken in molar units. Turning to `CC(=O)N(c1cc(C)cc(C#N)c1)c1cc(NC(=O)Cc2c(F)cccc2Cl)ccn1` [Example 179, N-{4-[2-(2-Chlor-6-fluorphenyl)acetamido]pyridin-2-yl}-N-(3-cyan-5-methylphenyl)acetamide], the “Human P2X4 HEK Cells (FLIPR Assay) avg Efficacy” value (“Human P2X4 HEK Cells” for short) is 98% and the negative-log IC50 (pIC50) was 6.17.

`CC(=O)N(c1ccc(C)c(Cl)c1)c1cc(NC(=O)Cc2ccccc2Cl)ccn1` [Example 180, N-(3-Chlor-4-methylphenyl)-N-{4-[2-(2-chlorphenyl)acetamido]pyridin-2-yl}acetamide]: the “Human P2X4 HEK Cells” value is reported as 101% and the pIC50 was 6.24.

Turning to `CC(=O)N(c1ccc(C)c(Cl)c1)c1cc(NC(=O)Cc2cccc(F)c2Cl)ccn1` [Example 181, N-{4-[2-(2-Chlor-3-fluorphenyl)acetamido]pyridin-2-yl}-N-(3-chlor-4-methylphenyl)acetamide], the “Human P2X4 HEK Cells” value is reported as 101% and the pIC50 is 6.24.

As for `CC(=O)N(c1ccc(C)c(Cl)c1)c1cc(NC(=O)Cc2c(Cl)cccc2Cl)ccn1` [Example 182, N-(3-Chlor-4-methylphenyl)-N-{4-[2-(2,6-dichlorphenyl)acetamido]pyridin-2-yl}acetamide], the “Human P2X4 HEK Cells” value was found to be 102% and the pIC50 was 6.23.

With `CC(=O)N(c1ccc(C)c(Cl)c1)c1cc(NC(=O)Cc2c(F)cccc2Cl)ccn1` [Example 183, N-{4-[2-(2-Chlor-6-fluorphenyl)acetamido]pyridin-2-yl}-N-(3-chlor-4-methylphenyl)acetamide], the “Human P2X4 HEK Cells” value worked out at 101% and the pIC50 was 6.22.

For `CC(=O)N(c1cc(NC(=O)Cc2c(F)cccc2Cl)ccn1)c1ccc(F)c(C)c1C` [Example 184, N-{4-[2-(2-Chlor-6-fluorphenyl)acetamido]pyridin-2-yl}-N-(4-fluor-2,3-dimethylphenyl)acetamide], the “Human P2X4 HEK Cells” value amounted to 104% and the pIC50 is 6.05.

Consider `CC(=O)N(c1ccccc1)c1cc(NC(=O)Cc2c(Cl)cccc2Cl)cnn1` [Example 185, N-{5-[2-(2,6-dichlorophenyl)acetamido]pyridazin-3-yl}-N-phenylacetamide], for which the “Human P2X4 HEK Cells” value was 101% and the pIC50 was 6.36.

As for `CC(=O)N(c1ccccc1)c1cc(NC(=O)Cc2cccc(F)c2Cl)cnn1` [Example 186, N-{5-[2-(2-chloro-3-fluorophenyl)acetamido]pyridazin-3-yl}-N-phenylacetamide], the “Human P2X4 HEK Cells” value was 99% and the pIC50 is 6.18.

For the molecule `CC(=O)N(c1ccccc1)c1cc(NC(=O)Cc2ccccc2Cl)cnn1` [Example 187, N-{5-[2-(2-chlorophenyl)acetamido]pyridazin-3-yl}-N-phenylacetamide], the “Human P2X4 HEK Cells” value is 100% and the pIC50 is 6.15.

As for `CC(=O)N(c1ccccc1)c1cc(NC(=O)Cc2ccc(F)cc2Cl)cnn1` [Example 188, N-{5-[2-(2-chloro-4-fluorophenyl)acetamido]pyridazin-3-yl}-N-phenylacetamide], the “Human P2X4 HEK Cells” value was determined as 98% and the pIC50 was 6.08.

With `CC(=O)N(c1ccc(F)cc1)c1cc(NC(=O)Cc2c(F)cccc2Cl)cnn1` [Example 189, N-{5-[2-(2-chloro-6-fluorophenyl)acetamido]pyridazin-3-yl}-N-(4-fluorophenyl)acetamide], the “Human P2X4 HEK Cells” value was 93% and the pIC50 is 6.18.

For the molecule `CC(=O)N(c1ccc(F)cc1)c1cc(NC(=O)Cc2ccc(F)cc2Cl)cnn1` [Example 190, N-{5-[2-(2-chloro-4-fluorophenyl)acetamido]pyridazin-3-yl}-N-(4-fluorophenyl)acetamide], the “Human P2X4 HEK Cells” value is on record as 95% and the pIC50 is 6.15.

As for `CC(=O)N(c1ccc(F)cc1)c1cc(NC(=O)Cc2cccc(F)c2Cl)cnn1` [Example 191, N-{5-[2-(2-chloro-3-fluorophenyl)acetamido]pyridazin-3-yl}-N-(4-fluorophenyl)acetamide], the “Human P2X4 HEK Cells” value came to 92% and the pIC50 was 6.13.

Turning to `CC(=O)N(c1ccc(F)cc1)c1cc(NC(=O)Cc2ccccc2Cl)cnn1` [Example 192, N-{5-[2-(2-chlorophenyl)acetamido]pyridazin-3-yl}-N-(4-fluorophenyl)acetamide], the “Human P2X4 HEK Cells” value is given as 90% and the pIC50 is 6.12.

On to `CC(=O)N(c1ccc(F)cc1)c1cc(NC(=O)Cc2c(Cl)cccc2Cl)cnn1` [Example 193, N-{5-[2-(2,6-dichlorophenyl)acetamido]pyridazin-3-yl}-N-(4-fluorophenyl)acetamide], for which the “Human P2X4 HEK Cells” value is on record as 93% and the pIC50 was 6.06.

In the case of `CC(=O)N(c1cccc(F)c1)c1cc(NC(=O)Cc2c(Cl)cccc2Cl)cnn1` [Example 194, N-{5-[2-(2,6-dichlorophenyl)acetamido]pyridazin-3-yl}-N-(3-fluorophenyl)acetamide], the “Human P2X4 HEK Cells” value is listed as 96% and the pIC50 is 6.39.

`CC(=O)N(c1cccc(F)c1)c1cc(NC(=O)Cc2cccc(F)c2Cl)cnn1` [Example 195, N-{5-[2-(2-chloro-3-fluorophenyl)acetamido]pyridazin-3-yl}-N-(3-fluorophenyl)acetamide]: the “Human P2X4 HEK Cells” value was determined as 95% and the pIC50 was 6.31.

Turning to `CC(=O)N(c1cccc(F)c1)c1cc(NC(=O)Cc2ccccc2Cl)cnn1` [Example 196, N-{5-[2-(2-chlorophenyl)acetamido]pyridazin-3-yl}-N-(3-fluorophenyl)acetamide], the “Human P2X4 HEK Cells” value was found to be 94% and the pIC50 was 6.26.

As to `CC(=O)N(c1cccc(F)c1)c1cc(NC(=O)Cc2c(F)cccc2Cl)cnn1` [Example 197, N-{5-[2-(2-chloro-6-fluorophenyl)acetamido]pyridazin-3-yl}-N-(3-fluorophenyl)acetamide], the “Human P2X4 HEK Cells” value was found to be 93% and the pIC50 is 6.17.

As for `CC(=O)N(c1cccc(F)c1)c1cc(NC(=O)Cc2ccc(F)cc2Cl)cnn1` [Example 198, N-{5-[2-(2-chloro-4-fluorophenyl)acetamido]pyridazin-3-yl}-N-(3-fluorophenyl)acetamide], the “Human P2X4 HEK Cells” value is recorded as 96% and the pIC50 was 6.03.

Regarding `CC(=O)N(c1ccc(F)c(F)c1)c1cc(NC(=O)Cc2ccccc2Cl)cnn1` [Example 199, N-{5-[2-(2-chlorophenyl)acetamido]pyridazin-3-yl}-N-(3,4-difluorophenyl)acetamide], the “Human P2X4 HEK Cells” value came out at 86% and the pIC50 is 6.35.

As for `CC(=O)N(c1ccc(F)c(F)c1)c1cc(NC(=O)Cc2c(Cl)cccc2Cl)cnn1` [Example 200, N-{5-[2-(2,6-dichlorophenyl)acetamido]pyridazin-3-yl}-N-(3,4-difluorophenyl)acetamide], the “Human P2X4 HEK Cells” value is given as 91% and the pIC50 was 6.33.

With `CC(=O)N(c1ccc(F)c(F)c1)c1cc(NC(=O)Cc2cccc(F)c2Cl)cnn1` [Example 201, N-{5-[2-(2-chloro-3-fluorophenyl)acetamido]pyridazin-3-yl}-N-(3,4-difluorophenyl)acetamide], the “Human P2X4 HEK Cells” value worked out at 89% and the pIC50 was 6.29.

`CC(=O)N(c1ccc(F)c(F)c1)c1cc(NC(=O)Cc2ccc(F)cc2Cl)cnn1` [Example 202, N-{5-[2-(2-chloro-4-fluorophenyl)acetamido]pyridazin-3-yl}-N-(3,4-difluorophenyl)acetamide]: the “Human P2X4 HEK Cells” value was 94% and the pIC50 was 6.25.

On to `CC(=O)N(c1ccc(F)c(F)c1)c1cc(NC(=O)Cc2c(F)cccc2Cl)cnn1` [Example 203, N-{5-[2-(2-chloro-6-fluorophenyl)acetamido]pyridazin-3-yl}-N-(3,4-difluorophenyl)acetamide], for which the “Human P2X4 HEK Cells” value is 86% and the pIC50 was 6.13.

`CC(=O)N(c1cc(F)cc(F)c1)c1cc(NC(=O)Cc2c(Cl)cccc2Cl)cnn1` [Example 204, N-{5-[2-(2,6-dichlorophenyl)acetamido]pyridazin-3-yl}-N-(3,5-difluorophenyl)acetamide]: the “Human P2X4 HEK Cells” value is 95% and the pIC50 was 6.42.

As to `CC(=O)N(c1cc(F)cc(F)c1)c1cc(NC(=O)Cc2ccccc2Cl)cnn1` [Example 205, N-{5-[2-(2-chlorophenyl)acetamido]pyridazin-3-yl}-N-(3,5-difluorophenyl)acetamide], the “Human P2X4 HEK Cells” value was found to be 93% and the pIC50 was 6.36.

Turning to `CC(=O)N(c1cc(F)cc(F)c1)c1cc(NC(=O)Cc2cccc(F)c2Cl)cnn1` [Example 206, N-{5-[2-(2-chloro-3-fluorophenyl)acetamido]pyridazin-3-yl}-N-(3,5-difluorophenyl)acetamide], the “Human P2X4 HEK Cells” value amounted to 93% and the pIC50 is 6.35.
